Laboratory results from patent publication US20170020909A1, “METHODS OF TREATING GLAUCOMA USING AMP-ACTIVATED PROTEIN KINASE (AMPK) ACTIVATORS” (Massachusetts Eye and Ear Infirmary, priority 2014, published 2017).
“Also recorded” adds a separate entry of the source.

Experiments:
[1] = system: primary cultured human TM cells; assay: Phalloidin (F-actin) immunofluorescent staining and morphology of primary cultured human TM cells; format: cell-based
Protocol: FIG. 6. […] Human TM cells were plated on 8-well slides, treated as in FIG. 3, and then stained with phalloidin (F-actin) antibody. Nuclei were stained with DAPI. Representative immunofluorescent images shown above (n=3). Scale bar, 50 μm. Primary human trabecular meshwork (TM) cells were isolated, in accordance with the Declaration of Helsinki, and maintained in culture as described previously.^63 Independent primary human TM cell lines were generated from donors ranging in age from 35 to 72 years and no known history of ocular disease. Cell cultures were maintained, unless otherwise stated, in Dulbecco's modified eagle medium (Life Technologies, Grand Island, N.Y.) containing 20% fetal bovine serum, 1% L-glutamine (2 mM), and gentamicin (0.1 mg/ml) at 37° C. in a 10% CO2 atmosphere. Only TM cells from third through fifth passage were used. All experiments were performed using at least three different primary human TM cell lines. TM cells in 8 well-slides were fixed for 30 minutes with 4% paraformaldehyde in PBS (pH 7.4) at 4° C., then washed in PBS for 10 minutes twice at RT. Cells were permeabilized with 0.2% Triton-100 in PBS for 5 min and then washed in PBS and blocked in 3% bovine serum albumin (BSA) in PBS for 1 hr at RT. […] Nuclei were stained with TO-DAPI (Invitrogen), and labeled tissues were analyzed by fluorescent light microscopy using a Zeiss Observer3.1.

AMPKα = assay: Time course immunoblot of p-AMPKα (Thr172)/total AMPKα in primary human TM cell lysates; format: cell-based; details: 0.5 mM AICAR, human TM cells
Protocol: Primary human trabecular meshwork (TM) cells were isolated, in accordance with the Declaration of Helsinki, and maintained in culture as described previously.^63 Independent primary human TM cell lines were generated from donors ranging in age from 35 to 72 years and no known history of ocular disease. Cell cultures were maintained, unless otherwise stated, in Dulbecco's modified eagle medium (Life Technologies, Grand Island, N.Y.) containing 20% fetal bovine serum, 1% L-glutamine (2 mM), and gentamicin (0.1 mg/ml) at 37° C. in a 10% CO2 atmosphere. Only TM cells from third through fifth passage were used. All experiments were performed using at least three different primary human TM cell lines.
At the conclusion of each experiment for matricellular and ECM protein detection, conditioned media (CM) from TM cell cultures was harvested and centrifuged at 5000 rpm for 10 minutes at 4° C. The supernatant was then concentrated (Amicon Ultra-4 Filter Unit, 10 kDa; Millipore, Milford, Mass.), and protein content quantified using the DC Protein Assay kit adhering to manufacturer's protocols (Bio-Rad, Hercules, Calif.). For AMPK protein detection, cells were lysed for 3 minutes on ice with cold 1×RIPA buffer containing 0.5% Aprotinin, 0.1% EDTA, 1% EGTA, 0.5% PMSF, and 0.01% Leupeptin. Samples were then centrifuged at 14,000 rpm for 15 minutes at 4° C. and protein content quantified. In all experiments, equal amounts of protein were treated with 6× reducing buffer and boiled for 5 minutes. Samples were then electrophoresed in 10% SDS-polyacrylamide gels, alongside a pre-stained protein marker (Cell Signaling Technology Inc., Danvers, Ma). For conditioned media loading control, the resultant gels were stained with 0.1% Coomassie Brilliant Blue G-250 (Bio-Rad, Hercules Calif.) for 3 hours and were destained with fixing/destaining solution until clear bands were visible and contrasted well with the true blue background. Otherwise, proteins were transferred to nitrocellulose membranes (0.45-μm pore size; Invitrogen). […] The membranes were then washed three times with 1×TBS-T, scanned, and integrated band intensities were calculated using an infrared imaging system (Odyssey; Li-Cor, Lincoln, Nebr.). […]

NC(=O)c1ncn([C@@H]2O[C@H](CO)[C@@H](O)[C@H]2O)c1N [AICAR, 5-Aminoimidazole-4-carboxamide riboside]
cell morphology ([1]; 0.5 mM AICAR, cultured TM cells (data not shown)): narrower cell bodies | F-actin staining and actin stress fiber formation ([1]; AICAR, basal and TGF-β2 stimulatory conditions): decreased F-actin staining and actin stress fiber formation; also recorded: decreased F-actin cytoskeletal staining, and fewer actin stress fibers | peak increase of phospho-total AMPK ratio (AMPKα; at 2 hours): greater than 2 fold | increase of phospho-total AMPK ratio, normalized to the zero time point (AMPKα; within 1 hour): 77%
